Measurements reported in ChEMBL document CHEMBL2069221, “Hybrid molecules of carvacrol and benzoyl urea/thiourea with potential applications in agriculture and medicine” (Bioorg Med Chem Lett, 2012).
In brackets after ≈: the same amount, converted by molar mass.

Key:
Dysdercus koenigii = experiment: Insecticidal activity against 5th instar nymph of Dysdercus koenigii assessed as mortality per nymph; format: functional
Pyricularia grisea = experiment: Antifungal activity against Magnaporthe grisea after 48 hrs by microbroth dilution method; format: functional
Fusarium oxysporum = experiment: Antifungal activity against Fusarium oxysporum after 48 hrs by microbroth dilution method; format: functional
Drechslera = experiment: Antifungal activity against Dreschlera oryzae after 48 hrs by microbroth dilution method; format: functional
Debaryomyces hansenii = experiment: Antifungal activity against Debaryomyces hansenii after 48 hrs by microbroth dilution method; format: functional
[1] = Antifungal activity against Pichia membranifaciens after 48 hrs by microbroth dilution method; format: functional
Candida albicans [2] = experiment: Antifungal activity against Candida albicans NCIM 3557 after 48 hrs by microbroth dilution method; format: functional
Candida albicans [3] = experiment: Antifungal activity against Candida albicans after 48 hrs by microbroth dilution method; format: functional
Candida albicans [4] = experiment: Antifungal activity against Candida albicans NCIM 3471 after 48 hrs by microbroth dilution method; format: functional
Nakaseomyces glabratus = experiment: Antifungal activity against Candida glabrata NCIM 3237 after 48 hrs by microbroth dilution method; format: functional
Cryptococcus neoformans [5] = experiment: Antifungal activity against Cryptococcus neoformans after 48 hrs by microbroth dilution method; format: functional
Cryptococcus neoformans [6] = experiment: Antifungal activity against Cryptococcus neoformans NCIM 3541 after 48 hrs by microbroth dilution method; format: functional
Cryptococcus neoformans [7] = experiment: Antifungal activity against Cryptococcus neoformans NCIM 3542 after 48 hrs by microbroth dilution method; format: functional
Cryptococcus neoformans [8] = experiment: Antifungal activity against Cryptococcus neoformans NCIM 3378 after 48 hrs by microbroth dilution method; format: functional
[9] = Toxicity in RBC assessed as induction of hemolysis; format: cell-based, Erythrocyte; details: red blood cells (RBC)
[10] = Toxicity in RBC assessed as induction of hemolysis at MIC; format: cell-based, Erythrocyte; details: red blood cells (RBC); read-out: Activity
[11] = Toxicity in RBC assessed as induction of hemolysis at 1000 ug/ml; format: cell-based, Erythrocyte; details: red blood cells (RBC); read-out: Activity

SMILES	LD50 (Dysdercus koenigii) [µg]	MIC (Pyricularia grisea) [µg/mL]	MIC (Fusarium oxysporum) [µg/mL]	MIC (Drechslera) [µg/mL]	MIC (Debaryomyces hansenii) [µg/mL]	MIC [1] [µg/mL]	GI (Candida albicans [2]) [µg/mL]	GI (Candida albicans [3]) [µg/mL]	GI (Candida albicans [4]) [µg/mL]	GI (Nakaseomyces glabratus) [µg/mL]	GI (Cryptococcus neoformans [5]) [µg/mL]	GI (Cryptococcus neoformans [6]) [µg/mL]	GI (Cryptococcus neoformans [7]) [µg/mL]	GI (Cryptococcus neoformans [8]) [µg/mL]	HC50 [9] [µg/mL]	hemolysis [10] [%]	hemolysis at 1000 ug/ml [11] [%]
Cc1cc(NC(=O)NC(=O)c2ccc(F)cc2)c(C(C)C)cc1O	14.9	> 512	> 512	> 512	> 512	> 512	>512	16	32	16	>512	<4	16	16	> 1000	< 2	
Cc1cc(NC(=S)NC(=O)c2ccccc2F)c(C(C)C)cc1O	12.6	256 (≈ 739 µM)	128 (≈ 369 µM)	> 512	256 (≈ 739 µM)	> 512	128	128	>512	128	32	64	128	512	> 1000	< 2	
Cc1cc(NC(=S)NC(=O)c2ccc(F)cc2)c(C(C)C)cc1O	12.6	256 (≈ 739 µM)	128 (≈ 369 µM)	256 (≈ 739 µM)	256 (≈ 739 µM)	512 (≈ 1480 µM)	64	64	>512	64	16	32	64	128	> 1000		17
Cc1cc(NC(=O)NC(=O)c2ccccc2F)c(C(C)C)cc1O	12.5	> 512	> 512	> 512	> 512	> 512	>512	16	32	16	>512	<4	16	16	> 1000	< 2	
Cc1cc(NC(=S)NC(=O)c2c(F)cccc2F)c(C(C)C)cc1O	11.3	> 512	> 512	256 (≈ 702 µM)	128 (≈ 351 µM)	> 512	256	64	>512	64	512	32	64	128	> 1000	< 2	
Cc1cc(NC(=S)NC(=O)c2ccc(Cl)cc2)c(C(C)C)cc1O	20.8	256 (≈ 705 µM)	128 (≈ 353 µM)	> 512	256 (≈ 705 µM)	512 (≈ 1410 µM)	64	16	32	32	64	8	32	32	> 1000	< 2	
Cc1cc(NC(=O)NC(=O)c2ccc(Cl)cc2)c(C(C)C)cc1O	18	512 (≈ 1480 µM)	256 (≈ 738 µM)	128 (≈ 369 µM)	128 (≈ 369 µM)	256 (≈ 738 µM)	64	32	>512	32	64	32	32	32	> 1000	< 2	
Cc1cc(NC(=O)NC(=O)c2ccccc2Cl)c(C(C)C)cc1O	16.4	> 512	512 (≈ 1480 µM)	256 (≈ 738 µM)	128 (≈ 369 µM)	256 (≈ 738 µM)	128	256	>512	>512	256	256	128	128	> 1000	< 2	
